Assay results reported in patent US10501493B2, “Broad spectrum antibiotics” (priority 2011, dated 2019).
Converted amounts (≈) assume the structure as drawn. Read-outs that look alike come from different tables or passages of the source.

Key:
C. glutamicum DSM 44475 = assay: In vitro antimicrobial activity, MIC by broth micro-dilution; format: cell-based
[1] = tested on: E. coli MIG1655 LepB(P84L); assay: as above; format: cell-based
How it was run: (§1)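 CLSI broth micro-dilution MIC against two-fold serial compound dilutions. Inoculum came from colonies grown 24 h at 35° C. or 28° C., suspended in cation-adjusted Mueller Hinton broth at 1*10^7 CFU/ml, of which 5 μl was added per 100 μl well. LepB(P84L) is a proline-mutant SPase strain with heightened arylomycin susceptibility.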

[2] = tested on: P. aeruginosa PA01 LepB(P84L); assay: as above; format: cell-based
How it was run: as §1

R. equi DSM 6939 = assay: as above; format: cell-based
How it was run: as §1

S. agalactiae ATCC 13813 = assay: as above; format: cell-based
S. agalactiae COH-1 = assay: as above; format: cell-based; details: S. agalactiae COH-1
S. aureus ATCC 29213 = assay: as above; format: cell-based
[3] = tested on: S. aureus NCTC-8325 SpsB(P295); assay: as above; format: cell-based
[4] = tested on: S. epidermidis ATCC 12228; assay: as above; format: cell-based
[5] = tested on: S. epidermidis RP62A SpsIB(S29P); assay: as above; format: cell-based
[6] = tested on: S. epidermidis RP62A SpsIB(S31P); assay: as above; format: cell-based
S. epidermidis RP62A = assay: as above; format: cell-based; details: S. epidermidis RP62A
S. pneumoniae D39 = assay: as above; format: cell-based; details: S. pneumoniae D39
S. pneumoniae R800 = assay: as above; format: cell-based
How it was run: as §1

S. pyogenes ATCC 19615 = assay: as above; format: cell-based
S. pyogenes M15448 = assay: as above; format: cell-based; details: S. pyogenes M15448
How it was run: as §1

E. coli SPase = biological target: T1, E. coli SPase (Escherichia coli, UniProt P00803); assay: Steady state binding constant (Kd) determination by fluorescence increase
T1 construct: Full length His-tagged E. coli SPase proteins were expressed in E. coli BL21(DE3); His-tag; made in house; host or cells: E. coli BL21(DE3)
Method: (§2) Full length His-tagged E. coli SPase proteins were expressed in E. coli BL21(DE3) containing the plasmid pET23-lepB, P. A. Smith et al. Chem Biol 2010, 1223-1231. Briefly, saturated overnight cultures grown in 20 ml of Luria-Bertani medium supplemented with ampicillin were subcultures into 1.5 L of Luria-Bertani, and shaken at 37° C. until an optical density at 600 nm of 0.4-0.5 was achieved. Protein expression was induced with Isopropyl β-D-1-thiogalactopyranoside (ITPG) at a final concentration of […], and purified using nickel affinity chromatography. Full length His-tagged S. aureus SPase protein was expressed similarly from E. coli BL21(DE3) containing the plasmid pCDF1-SaSpsB or pCDF1-SaSpsB(P29S) and purified similarly to the E. coli protein with the following exceptions. SPase protein was solubilized using 300 mM NaCl, 20 mM Tris pH 8.06, 5 mM Imidazole, 10% glycerol, 1% Triton X-100, prior to purification in Ni-NTA Superflow resin and resin bound protein was washed in a similar buffer containing 1% Elugent in place of Triton X-100 prior to protein eluted in wash buffer supplemented with 300 mM imidazole. Protein purify was judged to exceed 95% by visual inspection of SDS-PAGE followed by Comassie staining. All protein concentrations were determined by BCA assay.
(§3) Steady state binding constants (Kds) of compounds were determined by measuring an increase in fluorescence (λex=280 nm, λem=405 nm) that occurs upon binding to E. coli or S. aureus SPase protein. Two-fold serial dilutions of compounds were prepared in 100% DMSO, and compounds were diluted into binding buffer consisting of 100 mM NaCl, 20 mM Tris-HCl pH 7.4, 1 mM EDTA, 1% n-octyl-3-glucopyranoside (Anatrace), and 10% glycerol, with the final DMSO concentration equal to 1%. 70 μl of the resulting solutions containing various concentrations of compound in binding buffer were aliquoted into triplicate wells of a black polystyrene 384-well plate. 5 μl of blank solution or E. coli or S. aureus protein at concentrations of 750 or 3750 nM respectively, were added to each set of wells for a given inhibitor concentration. Plates were incubated for 14 hours and fluorescence read on an EnVision Multilable plate reader (Perkin Elmer™). Differences in fluorescence values between wells with and without protein were determined and background corrected for protein auto fluorescence. The corrected fluorescence difference data was fit to the quadratic equilibrium binding curve using the non-linear regression analysis software Solver (Frontline Systems®) run in Excel 2010, (Microsoft®), using experimentally determined quantum efficiency constants to convert fluorescence into nanomoles of protein/compound complex.

S. aureus SPase = biological target: T2, S. aureus SPase (Staphylococcus aureus, UniProt P0A070); assay: as above
T2 construct: Full length His-tagged S. aureus SPase protein was expressed similarly; His-tag; made in house; host or cells: E. coli BL21(DE3)
Method: as §2, §3

E. coli MIG1655 = assay: In vitro antimicrobial activity, MIC by broth micro-dilution; format: cell-based
How it was run: as §1

P. aeruginosa PA01 = assay: as above; format: cell-based
How it was run: as §1

[7] = S. epidermidis RP62A SpsIB(S29P)
[8] = S. epidermidis RP62A SpsIB(S31P)
[9] = Corynebacterium glutamicum, DSM44475, read-out: MIC
[10] = Rhodococcus (subgen. Prescottella) equi, DSM6939, read-out: MIC
[11] = Streptococcus agalactiae, ATCC13813, read-out: MIC
[12] = Streptococcus agalactiae, COH1, read-out: MIC
[13] = Staphylococcus aureus, ATCC29213, read-out: MIC
[14] = Staphylococcus aureus, NCTC8325
[15] = Staphylococcus epidermidis, ATCC12228, read-out: MIC
[16] = Staphylococcus epidermidis, read-out: MIC
[17] = Streptococcus pneumoniae, read-out: MIC
[18] = Streptococcus pyogenes, ATCC19615, read-out: MIC
[19] = Streptococcus pyogenes, read-out: MIC

CCCCCCCCCCCCCCCC(=O)N(C)[C@H](CO)C(=O)N[C@H](C)C(=O)NCC(=O)N(C)[C@@H]1C(=O)N[C@@H](C)C(=O)N[C@H](C(=O)N[C@@H](C)C(=O)NS(C)(=O)=O)Cc2ccc(O)c(c2)-c2cc1ccc2O [Compound 23] showed an MIC (C. glutamicum DSM 44475) of 8 µg/mL (≈ 7.77 µM), an MIC ([1]; E. coli MIG1655 LepB(P84L)) of 8 µg/mL (≈ 7.77 µM) and an MIC ([2]; P. aeruginosa PA01 LepB(P84L)) of over 64 µg/mL. It also gave an MIC (R. equi DSM 6939) of over 64 µg/mL, an MIC (S. agalactiae ATCC 13813) of 32 µg/mL (≈ 31.1 µM) and an MIC (S. agalactiae COH-1) of over 64 µg/mL. For the same molecule, the MIC (S. aureus ATCC 29213) was over 64 µg/mL, the MIC ([3]; S. aureus NCTC-8325 SpsB(P295)) was 8 µg/mL (≈ 7.77 µM) and the MIC [4] was 8 µg/mL (≈ 7.77 µM). The MIC [5, 7] was 16 µg/mL (≈ 15.5 µM), the MIC [6, 8] was over 64 µg/mL and the MIC (S. epidermidis RP62A) was 2 µg/mL (≈ 1.94 µM). It also gave an MIC (S. pneumoniae D39) of 8 µg/mL (≈ 7.77 µM), an MIC (S. pneumoniae R800) of 8 µg/mL (≈ 7.77 µM) and an MIC (S. pyogenes ATCC 19615) of 16 µg/mL (≈ 15.5 µM). The MIC (S. pyogenes M15448) was 16 µg/mL (≈ 15.5 µM), the Kd (E. coli SPase; in vitro equilibrium Kd, read-out: Kd E. coli SPase) was 3 µM and the Kd (S. aureus SPase; in vitro equilibrium Kd, read-out: Kd S. aureus SPase) was 8.9 µM.
With CCCCCCCCCCCCCCCC(=O)N(C)[C@H](CO)C(=O)N[C@H](C)C(=O)NCC(=O)N(C)[C@@H]1C(=O)N[C@@H](C)C(=O)N[C@H](C(=O)NCC(=O)O)Cc2ccc(O)c(c2)-c2cc1ccc2O [Compound 24] the MIC (C. glutamicum DSM 44475; [9]) was 64 µg/mL (≈ 68.2 µM), the MIC ([1]; Escherichia coli) was 4 µg/mL (≈ 4.26 µM) and the MIC ([2]; Pseudomonas aeruginosa) was 32 µg/mL (≈ 34.1 µM). It also gave an MIC (R. equi DSM 6939; [10]) of over 64 µg/mL, an MIC (S. agalactiae ATCC 13813; [11]) of 64 µg/mL (≈ 68.2 µM) and an MIC (S. agalactiae COH-1; [12]) of over 64 µg/mL. For the same molecule, the MIC (S. aureus ATCC 29213; [13]) was over 64 µg/mL, the MIC [3, 14] was 32 µg/mL (≈ 34.1 µM) and the MIC [4, 15] was 32 µg/mL (≈ 34.1 µM). The MIC ([5]; Staphylococcus epidermidis) was over 64 µg/mL, the MIC ([6]; Staphylococcus epidermidis) was over 64 µg/mL and the MIC (S. epidermidis RP62A; [16]) was 2 µg/mL (≈ 2.13 µM). For the same molecule, the MIC (S. pneumoniae D39; [17]) was 4 µg/mL (≈ 4.26 µM), the MIC (S. pneumoniae R800; [17]) was 8 µg/mL (≈ 8.53 µM) and the MIC (S. pyogenes ATCC 19615; [18]) was 8 µg/mL (≈ 8.53 µM). The MIC (S. pyogenes M15448; [19]) was 16 µg/mL (≈ 17.1 µM), the Kd (E. coli SPase) was 1.1 µM and the Kd (S. aureus SPase) was 2.9 µM.
For CCCCCCCCCCCCCCCC(=O)N(C)[C@H](CO)C(=O)N[C@H](C)C(=O)NCC(=O)N(C)[C@@H]1C(=O)N[C@@H](C)C(=O)N[C@H](C(=O)NC(C)C=O)Cc2ccc(O)c(c2)-c2cc1ccc2O (stereo partly drawn) [Compound 33], the MIC (C. glutamicum DSM 44475; [9]) was 64 µg/mL (≈ 68.4 µM), the MIC ([1]; Escherichia coli) was 64 µg/mL (≈ 68.4 µM) and the MIC (E. coli MIG1655; Escherichia coli, MIG1655) was over 64 µg/mL. It also gave an MIC ([2]; Pseudomonas aeruginosa) of over 64 µg/mL, an MIC (P. aeruginosa PA01; Pseudomonas aeruginosa, read-out: MIC) of over 64 µg/mL and an MIC (R. equi DSM 6939; [10]) of 64 µg/mL (≈ 68.4 µM). For the same molecule, the MIC (S. agalactiae ATCC 13813; [11]) was over 64 µg/mL, the MIC (S. agalactiae COH-1; [12]) was 64 µg/mL (≈ 68.4 µM) and the MIC (S. aureus ATCC 29213; [13]) was over 64 µg/mL. For the same molecule, the MIC [3, 14] was 64 µg/mL (≈ 68.4 µM), the MIC [4, 15] was over 64 µg/mL and the MIC ([5]; Staphylococcus epidermidis) was 64 µg/mL (≈ 68.4 µM). It also gave an MIC ([6]; Staphylococcus epidermidis) of 64 µg/mL (≈ 68.4 µM), an MIC (S. epidermidis RP62A; [16]) of 64 µg/mL (≈ 68.4 µM) and an MIC (S. pneumoniae D39; [17]) of 32 µg/mL (≈ 34.2 µM). It also gave an MIC (S. pneumoniae R800; [17]) of 32 µg/mL (≈ 34.2 µM), an MIC (S. pyogenes ATCC 19615; [18]) of 16 µg/mL (≈ 17.1 µM) and an MIC (S. pyogenes M15448; [19]) of 16 µg/mL (≈ 17.1 µM).
Molecule CCCCCCCCCCCCCCCC(=O)N[C@H](CC(N)=O)C(=O)N[C@H](C)C(=O)NCC(=O)N(C)[C@@H]1C(=O)N[C@@H](C)C(=O)N[C@H](C(=O)O)Cc2ccc(O)c(c2)-c2cc1ccc2O [Compound 34] has an MIC (C. glutamicum DSM 44475) of over 64 µg/mL, an MIC ([1]; E. coli MIG1655 LepB(P84L)) of over 64 µg/mL and an MIC (E. coli MIG1655; E. coli MIG1655) of over 64 µg/mL. It also gave an MIC ([2]; P. aeruginosa PA01 LepB(P84L)) of over 64 µg/mL, an MIC (P. aeruginosa PA01) of over 64 µg/mL and an MIC (R. equi DSM 6939) of over 64 µg/mL. The MIC (S. agalactiae ATCC 13813) was over 64 µg/mL, the MIC (S. agalactiae COH-1) was over 64 µg/mL and the MIC (S. aureus ATCC 29213) was over 64 µg/mL. It also gave an MIC ([3]; S. aureus NCTC-8325 SpsB(P295)) of over 64 µg/mL, an MIC [4] of over 64 µg/mL and an MIC [5, 7] of over 64 µg/mL. The MIC [6, 8] was over 64 µg/mL, the MIC (S. epidermidis RP62A) was over 64 µg/mL and the MIC (S. pneumoniae D39) was over 64 µg/mL. It also gave an MIC (S. pneumoniae R800) of over 64 µg/mL, an MIC (S. pyogenes ATCC 19615) of over 64 µg/mL and an MIC (S. pyogenes M15448) of over 64 µg/mL.
